“And” between values parts separate entries of the source, which are not always exact repeats. Equal entries are not always repeated. Where two headings read alike, the source gives them in different places.
Experiment: Bioavailability and pharmacokinetic studies in beagle dog model
Assay type: in vivo
Design: AUC/Dose: unit not given here
Conditions: dogs; for AUC/Dose: dose in mg/kg; for concentration at 5 min: 5 mg/animal, read-out: Cfirst (first measured concentration at 5 minutes)
Experimental: The bioavailability of cladribine when complexed with γCD or HPβCD was evaluated in a beagle dog model.
Bioavailability and pharmacokinetic studies were conducted in a beagle dog model as follows.
Outbred male beagle dogs (identified as PM01-PM06) obtained from IDRI (Dunakeszi, Hungary) were allowed laboratory diet and water ad libitum. The same dogs were used throughout the study to minimize inter- and intrasubject variability. The bioavailability and pharmacokinetic studies were conducted as follows.
In the first test period, 5 mg cladribine (0.25 mg/ml in isotonic saline) was administered intravenously to test subjects. Blood samples were collected at various time intervals over 48 hours. In the second test period, half of the subjects received buccally a tablet as described above containing a saturated cladribine-γCD or -HPβCD complex. Serial blood samples were collected over 48 hours. The third test period repeated the second test period with the exception that the subjects previously receiving the γ-cyclodextrin buccal tablet were now given hydroxypropyl-β-cyclodextrin buccal tablets, with hydroxypropyl-β-cyclodextrin tablet recipients from the second period receiving γ-cyclodextrin buccal tablets. The fourth and fifth test periods repeated test periods two and three with the exception that the tablets were given orally.
Cladribine levels in the blood were measured by HPLC and an LC/MS/MS method. The TopFit 2.0 Pharmacokinetic and Pharmacodynamic Data Analysis System was used for the pharmacokinetic analysis of the data.
The peak areas, calibration curves, accuracy, precision values and the concentrations were determined using Analyst Software 1.1 (PE SCIEX, Foster City, US). For calculation of mean and standard deviation, Excel 5.0 software was used. The calibration curve was fitted using the ratio of concentrations of analyte and internal standard versus the ratio of the peak areas of them. A straight line was fitted on the experimental points by weighted least squares linear regression analysis. The weighting scheme used was 1/concentration squared as pg/ml plasma.
For calculation of mean, standard deviation and CV %, Excel 5.0 software was used. Lower levels than the limit of quantification were not accepted. Mean and S.D. values were calculated only for the concentrations measured after intravenous administration.
Pharmacokinetic analysis was performed on the basis of individual plasma concentration versus time curves. The mean and S.D. of parameters obtained from individual data were calculated. The linear-trapezoidal rule was used for calculation of the area under the plasma concentration time curve from 0 until the last measured concentration (AUD). Using the terminal regression line the area extrapolated to infinity (AUCt-∞) was calculated in the following way: AUCt-∞=ccalc/λz • where: Ccalc represents the estimated plasma concentration by the regression line at the last sampling time point with measured concentration above the limit of quantification, and λz represents the rate constant calculated from the regression line.
The points determining the regression line, i.e. the terminal phase, were selected by visual determination of the linear segment of the semilogarithmic curve. The total area under the curve (AUC) was calculated by adding together the partial areas: AUC=AUD+AUCt-∞. The AUC values were normalized by the actual dose given in the particular period. For calculation of the bioavailability, the buccal/oral AUC/dose value was divided by the intravenous AUC/dose value.

[1] = intravenous bolus, 5 mg cladribine/animal, Mean of 6 dogs
[2] = intravenous bolus, 5 mg cladribine/animal, individual dogs PM01-PM06

## Nc1nc(Cl)nc2c1ncn2[C@H]1C[C@H](O)[C@@H](CO)O1 [cladribine, 2-chloro-2′-deoxyadenosine]
[1]
  AUD: 377 ng·h/mL
  AUDext: 1.4%
  Cinitial (extrapolated value at the end of the bolus): 563 ng/mL
  MRTtot: 1.3 h
  AUC/Dose: 967
[2]
  AUC/Dose: 918 and 965 and 947 and 949 and 948 and 1077
  AUC: 338 ng·h/mL and 366 ng·h/mL and 432 ng·h/mL and 342 ng·h/mL and 433 ng·h/mL
  AUD: 379 ng · h/ml and 334 ng · h/ml and 359 ng · h/ml and 426 ng · h/ml (2×) and 337 ng · h/ml
  AUDext: 1.4% (3×) and 1.0% and 1.9% and 1.5%
  Cfirst (first measured concentration at 5 minutes): 306 ng/mL and 478 ng/mL and 560 ng/mL and 446 ng/mL and 605 ng/mL
  Cinitial (extrapolated value at the end of the bolus): 569 ng/mL and 335 ng/mL and 567 ng/mL and 655 ng/mL and 525 ng/mL and 726 ng/mL
  Cltot: 247 mL/min and 228 mL/min and 193 mL/min and 244 mL/min and 192 mL/min
  Cltot/kg: 17.6 mL/min/kg and 15.4 mL/min/kg
  MRTtot: 1.4 h and 1.5 h and 1.3 h (3×) and 1.2 h
  t½ terminal: 11.3 h and 9.9 h and 10.4 h and 8.5 h and 10.7 h
male, beagle, dog, plasma, iv, 5 mg, after intravenous administration, read-out: mean total clearance
  clearance: 17 mL/min/kg
male, beagle, dog, plasma, iv, 5 mg, after intravenous administration, read-out: terminal elimination half-life (converted)
  half-life: ~10 h
male, beagle, dog, plasma, iv, 5 mg, intravenous bolus, 5 mg cladribine/animal, Mean of 6 dogs, read-out: AUC
  AUC: 382 ng·h/mL
male, beagle, dog, plasma, iv, 5 mg, intravenous bolus, 5 mg cladribine/animal, Mean of 6 dogs, read-out: Cltot
  clearance: 220 mL/min
male, beagle, dog, plasma, iv, 5 mg, intravenous bolus, 5 mg cladribine/animal, Mean of 6 dogs, read-out: Cltot/kg
  clearance: 17.3 mL/min/kg
male, beagle, dog, plasma, iv, 5 mg, intravenous bolus, 5 mg cladribine/animal, Mean of 6 dogs, read-out: t½ terminal (converted)
  half-life: 10.3 h
male, beagle, dog, plasma, iv, 5 mg, intravenous bolus, 5 mg cladribine/animal, individual dogs PM01-PM06, read-out: AUC
  AUC: 383 ng·h/mL
male, beagle, dog, plasma, iv, 5 mg, intravenous bolus, 5 mg cladribine/animal, individual dogs PM01-PM06, read-out: Cltot
  clearance: 217 mL/min
male, beagle, dog, plasma, iv, 5 mg, intravenous bolus, 5 mg cladribine/animal, individual dogs PM01-PM06, read-out: Cltot/kg
  clearance: 18.1 mL/min/kg
male, beagle, dog, plasma, iv, 5 mg, intravenous bolus, 5 mg cladribine/animal, individual dogs PM01-PM06, read-out: t½ terminal (converted)
  half-life: 11 h
male, beagle, dog, plasma, iv, intravenous bolus, 5 mg cladribine/animal, Mean of 6 dogs
  concentration at 5 min: 479 ng/mL
male, beagle, dog, plasma, iv, intravenous bolus, 5 mg cladribine/animal, individual dogs PM01-PM06
  concentration at 5 min: 477 ng/mL

Source: patent publication US8623408B2, “Cladribine formulations for improved oral and transmucosal delivery” (Ares Trading S.A., priority 2003, dated 2014)
